One data set deals with HDAC. As to the kind of experiment: HDAC fluorimetric assay kit (AK-500, Biomol), HeLa nuclear extract. It is filed as biochemical. The conditions noted are these: Fluor de Lys substrate. The protocol:
HDAC inhibitors were screened using an HDAC fluorimetric assay kit (AK-500, Biomol, Plymouth Meeting, Pa.). […] Each assay was setup as follows: Defrosted all kit components and kept on ice until use. Diluted HeLa nuclear extract 1:29 in Assay Buffer (50 mM Tris/Cl, pH 8.0, 137 mM NaCl, 2.7 mM KCl, 1 mM MgCl2). Prepared dilutions of Trichostatin A (TSA, positive control) and tested compounds in assay buffer (5× of final concentration). Diluted Fluor de Lys™ Substrate in assay buffer to 100 uM (50 fold=2× final). Diluted Fluor de Lys™ developer concentrate 20-fold (e.g. 50 μl plus 950 μl Assay Buffer) in cold assay buffer. Second, diluted the 0.2 mM Trichostatin A 100-fold in the 1× Developer (e.g. 10 μl in 1 ml; final Trichostatin A concentration in the 1× Developer=2 μM; final concentration after addition to HDAC/Substrate reaction=1 μM). Added Assay buffer, diluted trichostatin A or test inhibitor to appropriate wells of the microtiter plate. Added diluted HeLa extract or other HDAC sample to all wells except for negative controls. Allowed diluted Fluor de Lys™ Substrate and the samples in the microtiter plate to equilibrate to assay temperature (e.g. 25 or 37° C. Initiated HDAC reactions by adding diluted substrate (25 μl) to each well and mixing thoroughly. Allowed HDAC reactions to proceed for 1 hour and then stopped them by addition of Fluor de Lys™ Developer ([…]). Incubated plate at room temperature (25° C.) for 10-15 min. Read samples in a microtiter-plate reading fluorimeter capable of excitation at a wavelength in the range 350-380 nm and detection of emitted light in the range 440-460 nm.
(§1) The following TABLE B lists compounds representative of the invention and their activity in HDAC, VEGFR2 and PDGFR assays.

For the next data set, the target named is T1, PDGFR-beta (Homo sapiens, UniProt P09619).
T1 construct: GST (N); HIS6 (N); Thrombin cleavage site (N); purchased Cell Signaling Technologies; host or cells: baculovirus expression system
As to the kind of experiment: HTScan Receptor Kinase Assay, PDGFR-beta tyrosine kinase. In kind it is biochemical. As to conditions: human PDGFR-beta kinase fragment, 200 μM ATP. As to the method: (§2) Immediately transfer enzyme from −80° C. to ice. Allowed enzyme to thaw on ice. […] Returned immediately to ice. […] Incubated reaction plate at room temperature for 30 minutes. […] Added 100 μl/well primary antibody. Incubated at room temperature for 60 minutes. […] Added 100 μl/well diluted antibody. Incubated at room temperature for 30 minutes. […] Incubated at room temperature for 5 minutes.
as §1

The target of the next data set is T2, VEGFR2 (Homo sapiens, UniProt P35968).
T2 construct: GST (N); HIS6 (N); Thrombin cleavage site (N); purchased Cell Signaling Technologies; host or cells: baculovirus expression system
The data set can be described thus: HTScan Receptor Kinase Assay, VEGFR2 tyrosine kinase. The conditions noted are these: human VEGFR2 kinase domain, 200 μM ATP. In kind it is biochemical. The protocol:
as §2, §1

T1 sequence (P09619 561-1106): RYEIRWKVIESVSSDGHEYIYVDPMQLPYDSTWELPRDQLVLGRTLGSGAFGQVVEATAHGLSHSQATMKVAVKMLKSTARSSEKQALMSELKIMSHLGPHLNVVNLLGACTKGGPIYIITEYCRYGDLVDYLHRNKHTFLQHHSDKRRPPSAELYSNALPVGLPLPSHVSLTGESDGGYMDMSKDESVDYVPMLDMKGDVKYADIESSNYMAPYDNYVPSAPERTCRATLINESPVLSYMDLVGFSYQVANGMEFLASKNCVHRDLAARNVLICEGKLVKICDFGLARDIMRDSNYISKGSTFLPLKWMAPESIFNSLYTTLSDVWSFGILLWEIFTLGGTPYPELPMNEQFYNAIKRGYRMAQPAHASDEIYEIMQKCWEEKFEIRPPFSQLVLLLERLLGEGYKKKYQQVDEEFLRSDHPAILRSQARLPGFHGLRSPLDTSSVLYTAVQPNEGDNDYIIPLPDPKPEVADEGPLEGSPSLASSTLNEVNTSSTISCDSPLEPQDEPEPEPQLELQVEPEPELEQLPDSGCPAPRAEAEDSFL
T2 sequence (P35968 807-1356 limits assumed): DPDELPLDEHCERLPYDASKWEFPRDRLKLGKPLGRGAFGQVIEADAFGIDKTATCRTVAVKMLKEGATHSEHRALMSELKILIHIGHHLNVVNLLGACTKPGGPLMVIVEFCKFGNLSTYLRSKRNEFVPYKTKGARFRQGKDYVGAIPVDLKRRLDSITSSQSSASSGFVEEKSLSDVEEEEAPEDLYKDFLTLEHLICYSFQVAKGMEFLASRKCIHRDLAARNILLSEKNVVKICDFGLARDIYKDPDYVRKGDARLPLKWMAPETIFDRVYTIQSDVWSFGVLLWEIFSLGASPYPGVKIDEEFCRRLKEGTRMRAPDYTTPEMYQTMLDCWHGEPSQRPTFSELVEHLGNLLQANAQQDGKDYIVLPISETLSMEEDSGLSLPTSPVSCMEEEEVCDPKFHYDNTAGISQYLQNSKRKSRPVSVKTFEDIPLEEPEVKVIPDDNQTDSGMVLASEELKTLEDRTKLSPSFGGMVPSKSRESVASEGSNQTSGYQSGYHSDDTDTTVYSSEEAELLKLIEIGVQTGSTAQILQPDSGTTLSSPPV

Consider `Cc1[nH]c(/C=C2\C(=O)Nc3ccc(F)cc32)c(C)c1C(=O)NCCCCCCCC(=O)NO` [Compound 16, (Z)-5-((5-Fluoro-2-oxoindolin-3-ylidene)methyl)-N-(8-(hydroxyamino)-8-oxooctyl)-2,4-dimethyl-1H-pyrrole-3-carboxamide], for which the melting point is 213.7 °C (dec.). The compound further showed an IC50 in the data set with HDAC of less than 100 nM. The IC50 against PDGFR-beta was 100 to 1000 nM. Moreover, the IC50 against VEGFR2 is less than 100 nM.

`Cc1[nH]c(/C=C2\C(=O)Nc3ccc(F)cc32)c(C)c1C(=O)NCCOc1ccc(C(=O)NO)cc1` [Compound 8, (Z)-5-((5-fluoro-2-oxoindolin-3-ylidene)methyl)-N-(2-(4-(hydroxycarbamoyl)phenoxy)ethyl)-2,4-dimethyl-1H-pyrrole-3-carboxamide] came in with an IC50 in the data set on HDAC of 100 to 1000 nM.

For `Cc1[nH]c(/C=C2\C(=O)Nc3ccc(F)cc32)c(C)c1C(=O)NCCCCCC(=O)N(C)O` [Compound 9, (Z)-5-((5-fluoro-2-oxoindolin-3-ylidene)methyl)-N-(6-(hydroxy(methyl)amino)-6-oxohexyl)-2,4-dimethyl-1H-pyrrole-3-carboxamide], the values for the IC50 in the data set with HDAC and against VEGFR2 were more than 10000 nM and less than 100 nM, respectively.

For `Cc1[nH]c(/C=C2\C(=O)Nc3ccc(F)cc32)c(C)c1C(=O)NCCCCCCC(=O)NO` [Compound 15, (Z)-5-((5-Fluoro-2-oxoindolin-3-ylidene)methyl)-N-(7-(hydroxyamino)-7-oxoheptyl)-2,4-dimethyl-1H-pyrrole-3-carboxamide], the melting point was 221 °C (dec.). Further, the IC50 in the data set on HDAC was less than 100 nM. The same compound yielded an IC50 against PDGFR-beta of 100 to 1000 nM. The IC50 at VEGFR2 is less than 100 nM.

In the case of `Cc1[nH]c(/C=C2\C(=O)Nc3ccc(F)cc32)c(C)c1C(=O)NCCOc1ccc(/C=C/C(=O)NO)cc1` [Compound 14, 5-((Z)-(5-fluoro-2-oxoindolin-3-ylidene)methyl)-N-(2-(4-((E)-3-(hydroxyamino)-3-oxoprop-1-enyl)phenoxy)ethyl)-2,4-dimethyl-1H-pyrrole-3-carboxamide], the IC50 was 100 to 1000 nM in the data set on HDAC and less than 100 nM against VEGFR2.

With `Cc1[nH]c(/C=C2\C(=O)Nc3ccc(F)cc32)c(C)c1C(=O)NCCCCCC(=O)NO` [Compound 4, N-(5-(hydroxycarbamoyl)pentyl)-5-((Z)-(5-fluoro-2-oxoindolin-3-ylidene)methyl)-2,4-dimethyl-1H-pyrrole-3-carboxamide], the melting point is 209.7 °C (dec.). The compound also displayed an IC50 with HDAC of 100 to 1000 nM. Moreover, the IC50 against PDGFR-beta is less than 100 nM. Moreover, the IC50 against VEGFR2 was less than 100 nM.

As to `Cc1[nH]c(/C=C2\C(=O)Nc3ccc(F)cc32)c(C)c1C(=O)NCCC(=O)NO` [Compound 2, N-(2-(hydroxycarbamoyl)ethyl)-5-((Z)-(5-fluoro-2-oxoindolin-3-ylidene)methyl)-2,4-dimethyl-1H-pyrrole-3-carboxamide], the IC50 is 100 to 1000 nM in the data set with HDAC, 100 to 1000 nM on PDGFR-beta and less than 100 nM at VEGFR2.

With `Cc1[nH]c(/C=C2\C(=O)Nc3ccc(F)cc32)c(C)c1C(=O)NCCCC(=O)NO` [Compound 3, N-(3-(hydroxycarbamoyl)propyl)-5-((Z)-(5-fluoro-2-oxoindolin-3-ylidene)methyl)-2,4-dimethyl-1H-pyrrole-3-carboxamide], the figures for the IC50 with HDAC, at PDGFR-beta and at VEGFR2 were 1000 to 10000 nM, less than 100 nM and less than 100 nM, respectively.

The melting point is the temperature of the solid-liquid transition. As a reminder, the IC50 is the concentration that gives 50% inhibition. The low end stands for greater potency in that assay, the high end for weaker potency in that assay.

The values are drawn from patent US7928136B2, “Substituted 2-indolinone as PTK inhibitors containing a zinc binding moiety” (Curis, Inc., priority 2006, dated 2011).
